Measurements from EPA's ToxValDB 9.5.
“And” between values parts separate entries of the source, which are not always exact repeats. Equal entries are not always repeated.

Experiments:
[1] = system: Rattus norvegicus; conditions: oral; for NOAEL: subchronic
[2] = system: Rattus norvegicus; conditions: for LD50 / LC50: acute
[3] = system: Rattus norvegicus
[4] = system: Rattus norvegicus; conditions: M/F
[5] = subchronic, duration: 90 days, oral, gavage, Sprague-Dawley
[6] = reproduction developmental, duration: 103 weeks, oral, drinking water, generation: F0
[7] = reproduction developmental, duration: 104 weeks, oral, drinking water
[8] = reproduction developmental, duration: 59 days, oral, drinking water
[9] = subchronic, duration: 90 days, oral, diet, Sprague-Dawley

O=P([O-])(O)CN(CCN(CCN(CP(=O)(O)O)CP(=O)(O)O)CP(=O)(O)O)CP(=O)(O)O.[Na+]
NOAEL ([1]; duration: 90 days, diet, M/F, Wistar, Hematology: RBC increase, MCV decrease, MCH decrease, HGB decrease, MCHC decrease + Absolute Organ Weight: Liver decrease): 96 mg/kg-day

Clc1ccc(OCCOCc2ccc(COCCOc3ccc(Cl)cc3)cc2)cc1
NOEL ([1]; short-term, duration: 28 days, gavage, M/F, Body Weight Changes: Body weight gain decrease + Food Consumption: decrease + Blood Chemistry: ALB increase, A/G increase + Organ Weight: …): 8 mg/kg-day

NC1=CC(=O)C(N=Nc2ccc(Nc3ccc(N=Nc4c(S(=O)(=O)[O-])cc5c(c4N)C(=O)C(N=Nc4ccccc4)C(S(=O)(=O)[O-])=C5)cc3S(=O)(=O)[O-])cc2)C=C1.[Na+].[Na+].[Na+] (stereo not given)
NOEL ([1]; short-term, duration: 28 days, gavage, M/F, Hematology: MET-HGB increase, RET increase, RBC decrease, HGB decrease, MCHC decrease, MCV increase, PCV decrease, MCH increase, HEINZ …): < 50 mg/kg-day

CC(=O)Nc1cc(Nc2nc(Nc3ccc(N=Nc4cccc(S(=O)(=O)[O-])c4)c(NC(C)=O)c3)nc(N3CCOCC3)n2)ccc1N=Nc1cccc(S(=O)(=O)[O-])c1.[Na+].[Na+]
NOEL ([1]; short-term, duration: 28 days, gavage, M/F, Urinalysis: Bil increase + Blood Chemistry: T-Bil increase, UA increase): 200 mg/kg-day

CC(C)(c1ccc(O)cc1)c1ccc(C(C)(c2ccc(O)cc2)c2ccc(O)cc2)cc1
NOEL ([1]; short-term, duration: 28 days, gavage, M/F, Crj:CD, Hematology: Plt increase + Blood Chemistry: GPT increase, TG increase, Cho increase, TP decrease, LH decrease, , FSH decrease, Estradiol …): 300 mg/kg-day

Cc1cc(N(C)C)ccc1[P+](=O)[O-].[Na+]
NOAEL ([2]; reproduction developmental, duration: 14 days, injection, subcutaneous, F, Wistar): 50 mg/kg-day

CCCCCCCCCCCCOCCOS(=O)(=O)[O-].[Na+]
LD50 ([2]; oral): 1600 mg/kg

CCCCCCCCOC(=O)CCc1cc(-n2nc3ccccc3n2)c(O)c(C(C)(C)C)c1
NOEL ([1]; short-term, duration: 28 days, gavage, M/F, Body Weight Changes: Body weight gain decrease + Hematology: PT increase + Blood Chemistry: GOT increase, GPT increase, T-CHO increase, TG …): 2 mg/kg-day

CCN(CC)c1ccc2c(c1)Oc1cc(C)c(Nc3ccc(C)cc3C)cc1C21OC(=O)c2ccccc21 (stereo not given)
LD50 ([2]; dermal, semiocclusive, Sprague-Dawley): > 2000 mg/kg | LD50 ([2]; oral, gavage, Sprague-Dawley): > 10000 mg/kg

CCN(CC)c1ccc2c(c1)Oc1cc(C)c(Nc3ccccc3)cc1C21OC(=O)c2ccccc21 (stereo not given)
LD50 ([2]; oral, gavage, Sprague-Dawley): > 2000 mg/kg

CCN1CCc2c3n(c4ccccc24)C(C(=O)OC)=CCC31.Cl (stereo not given)
NOEL ([1]; chronic, duration: 91 days, gavage, M/F, CD, Clinical Observation: Salivation Greenish urine + Urinalysis: Greenish, or Dark green urine Quarry placoid crystal Urinary cast Volume …): 50 mg/kg-day

CC1=C(C)C(=O)C(C(CCCCCC(=O)O)c2ccccc2)=C(C)C1=O (racemic)
NOAEL ([1]; duration: 13 weeks, gavage, M/F, Fischer 344, Body Weight Changes: decrease + Food Consumption: decrease + Hematology: RBC decrease, HCT decrease, HGB decrease, MCV increase, MCH …): 20 mg/kg-day

CC(O)CN(CCN(CC(C)O)CC(C)O)CC(C)O (stereo not given) [1,1',1'',1'''-(Ethylenedinitrilo)tetrakis(2-propanol)]
LD50 ([2]; oral, gavage): 11200 mg/kg | NOAEL ([2]; subchronic, duration: 3 months, oral, diet, Harlan): ≥ 600 mg/kg-day and ≤ 900 mg/kg-day

C[Si](O[Si](C)(C)C)O[Si](C)(C)C [1,1,1,3,5,5,5-Heptamethyltrisiloxane]
NOAEL ([1]; duration: 35 days, gavage, M, Wistar, Clinical Observation: Salivation / No description about sex and dosages Pushing the head through the bedding material / No description …): 50 mg/kg-day

Clc1cccc(Cl)c1 [1,3-Dichlorobenzene]
LD50 ([2]; oral, gavage, Sprague-Dawley): 1200 mg/kg and 1100 mg/kg and 1000 mg/kg | NOAEL ([2]; reproduction developmental, duration: 10 days, oral, gavage, F, Sprague-Dawley): 200 mg/kg-day | NOAEL ([2]; reproduction developmental, duration: 10 days, oral, gavage, Sprague-Dawley, generation: F1): 200 mg/kg-day | NOAEL ([2]; reproduction developmental, duration: 90 days, oral, gavage, Sprague-Dawley, generation: F0): 147 mg/kg-day | LOAEL [2, 5]: 147 mg/kg-day | NOAEL [2, 5]: 37 mg/kg-day

OCCN1CCNCC1 [1-Piperazineethanol]
LD50 ([2]; oral, gavage): 2000 mg/kg | NOAEL ([2]; short-term, duration: 7 days, oral, diet, F, Wistar): 1610 mg/kg-day | NOAEL ([2]; short-term, duration: 7 days, oral, diet, M, Wistar): 3720 mg/kg-day

Brc1ccc(Oc2cc(Br)c(Br)cc2Br)c(Br)c1 [2,2',4,4',5-Pentabromodiphenyl ether]
LOAEL ([3]; developmental, duration: 1 days, oral, gavage, M/F, Wistar, developmental): 0.06 mg/kg-day | LOEL ([4]; developmental, injection, intraperitoneal, Wistar, generation: F1, F1: Y maze): 30 mg/kg-day | LOEL ([4]; reproduction developmental, oral, gavage, Crl:CD(SD), generation: P0, P0: Morris water maze (latency, significant trial)): 2 mg/kg-day

CC(C)(C)c1ccc(O)c(C(C)(C)C)c1 [2,4-Di-tert-butylphenol]
LD50 ([2]; oral, gavage, albino): 1500 mg/kg and 1300 mg/kg and 2100 mg/kg

CCN(CC#N)c1cccc(C)c1 [2-(Ethyl(3-methylphenyl)amino)acetonitrile]
NOAEL ([2]; developmental, duration: 38 days, oral, gavage, Sprague-Dawley): 150 mg/kg-day | NOAEL ([2]; reproduction developmental, duration: 38 days, oral, gavage, Sprague-Dawley, generation: F0): 25 mg/kg-day | NOAEL ([2]; reproduction developmental, duration: 38 days, oral, gavage, Sprague-Dawley, generation: F1): 150 mg/kg-day

CC(CN)CCCN (stereo not given) [2-Methylpentanediamine]
LC50 ([2]; inhalation, CRL:CD BR): 4.1 µg/mL and 2.9 µg/mL | LD50 ([2]; oral, gavage, Crl:CD(SD)): 1690 mg/kg | NOAEL ([2]; short-term, duration: 28 days, oral, diet, F, CRL:CD BR): 3000 ppm | NOAEL ([2]; short-term, duration: 28 days, oral, diet, M, CRL:CD BR): 10000 ppm

CCN(CC)c1ccc(C(=O)c2ccccc2C(=O)O)c(O)c1 [2-[4-(Diethylamino)-2-hydroxybenzoyl]benzoic acid]
LD50 ([2]; oral, gavage, Sprague-Dawley): > 5000 mg/kg

CC(C)(c1ccccc1)c1ccc(O)cc1 [4-Cumylphenol]
LD50 ([2]; oral, Sprague-Dawley): 1770 mg/kg | LD50 ([2]; oral, gavage, Sprague-Dawley): 1770 mg/kg

COc1ccc(O)cc1 [4-Methoxyphenol]
NOAEL ([2]; developmental, dermal): 40 mg/kg-day | NOAEL ([2]; reproduction developmental, dermal, F): 40 mg/kg-day

CCCCCCC1C=CC(CCCCCCCC(=O)O)CC1C(=O)O (stereo not given) [5(6)-Carboxy-4-hexyl-2-cyclohexene-1-octanoic acid]
LD50 ([2]; oral, gavage, Sprague-Dawley): 6180 mg/kg

O=c1c2ccccc2[nH]c2cc3c(=O)c4ccccc4[nH]c3cc12 [5,12-Dihydroquino[2,3-b]acridine-7,14-dione]
LC50 ([2]; inhalation, Crl:CD(SD)): ≥ 3.1 µg/mL | LD50 ([2]; oral, gavage, albino): ≥ 7500 mg/kg

CCCCCCCC/C=C\CCCCCCCC#N [(Z)-9-Octadecenenitrile]
LD50 ([2]; oral, gavage, Sprague-Dawley): > 5000 mg/kg

CCCCCCCC/C=C\CCCCCCCCN [(Z)-9-Octadecenylamine]
LD50 ([2]; oral, gavage, Sprague-Dawley): 1180 mg/kg and 1690 mg/kg

CCCC [Butane]
NOAEL ([2]; reproduction developmental, inhalation, Sprague-Dawley): 21400 mg/m3

[Cd] [Cadmium]
LOAEL ([3]; short-term, duration: 2 weeks, inhalation, M/F, Fischer 344, respiratory): 0.088 mg/m3

CCN(CC)C(=O)c1cccc(C)c1 [DEET]
NOAEL ([3]; developmental, duration: 364 days, oral, diet, M/F, Sprague-Dawley, developmental): 100 mg/kg-day

O=C(Cl)C(Cl)Cl [Dichloroacetyl chloride]
LD50 ([2]; oral): 2460 mg/kg | NOAEL ([2]; subchronic, duration: 30 days, inhalation, Sprague-Dawley): 6.03 mg/m3

COC [Dimethyl ether]
LC50 ([2]; inhalation, Sprague-Dawley): 309000 mg/m3

CC(COCC(C)OC(=O)c1ccccc1)OC(=O)c1ccccc1 (stereo not given) [Dipropylene glycol, dibenzoate]
LD50 ([2]; dermal, Sprague-Dawley): > 2000 mg/kg | LD50 ([2]; oral, Sprague-Dawley): 5070 mg/kg and 3300 mg/kg and 3910 mg/kg | NOAEL ([2]; developmental, duration: 13 days, oral, gavage, Sprague-Dawley): 500 mg/kg-day and 250 mg/kg-day | NOAEL ([2]; reproduction developmental, duration: 38 weeks, oral, diet, Sprague-Dawley, generation: F0): 10000 ppm | NOAEL ([2]; reproduction developmental, duration: 38 weeks, oral, diet, Sprague-Dawley, generation: F1): 10000 ppm | NOAEL ([2]; reproduction developmental, duration: 13 days, oral, gavage, F, Sprague-Dawley): 1000 mg/kg-day | NOAEL ([2]; subchronic, duration: 13 weeks, oral, diet): 1000 mg/kg-day

O=CCCCC=O [Glutaraldehyde]
NOAEL ([3]; acute, duration: 1 days, inhalation, M/F, Fischer 344, respiratory): 0.512 mg/m3 | NOAEL ([3]; chronic, duration: 2 years, oral, drinking water, M/F, Fischer 344, gastrointestinal): 4 mg/kg-day

C1CCCNCC1 [Hexamethyleneimine]
LD50 ([2]; oral, gavage, Sprague-Dawley): 9.6 mg/kg and ≥ 8 mg/kg and ≤ 11.4 mg/kg

CS(=O)(=O)O [Methanesulfonic acid]
LD50 ([2]; oral): ≥ 200 mg/kg and ≤ 400 mg/kg

COC(=O)CC(C)=O [Methyl acetoacetate]
NOAEL ([2]; developmental, oral, gavage, Crj:CD(SD)): > 1000 mg/kg-day | NOAEL ([2]; short-term, duration: 4 weeks, oral, gavage, F, Sprague-Dawley): 1000 mg/kg-day | NOAEL ([2]; short-term, duration: 4 weeks, oral, gavage, M, Sprague-Dawley): 1000 mg/kg-day

O=c1[n-]c(=O)[nH]c(=O)[nH]1.[Na+] [Monosodium cyanurate]
NOAEL ([2]; developmental, duration: 103 weeks, oral, drinking water): 5380 ppm | NOAEL ([2]; developmental, duration: 10 days, oral, gavage, COBSCD (Charles River)): > 5000 mg/kg-day | NOAEL ([2]; reproduction developmental, duration: 13 weeks, oral, drinking water): ≥ 5380 ppm | LOAEL [2, 6]: 5380 ppm | NOAEL [2, 6]: 1200 ppm | NOAEL ([2]; reproduction developmental, duration: 103 weeks, oral, drinking water, generation: F1): 5380 ppm | NOAEL ([2]; reproduction developmental, duration: 103 weeks, oral, drinking water, generation: F2): 5380 ppm | LOAEL [2, 7]: 5380 ppm | NOAEL [2, 7]: 2400 ppm | NOAEL ([2]; reproduction developmental, duration: 10 days, oral, gavage, F, COBSCD (Charles River)): > 5000 mg/kg-day | LOAEL [2, 8]: ≥ 2000 ppm | NOAEL [2, 8]: ≥ 400 ppm and ≤ 1200 ppm

CCC(C)Nc1ccc(NC(C)CC)cc1 (stereo not given) [N,N'-Bis(1-methylpropyl)-1,4-benzenediamine]
LC50 ([2]; inhalation, Sprague-Dawley): > 0.2 µg/mL | LOAEL ([2]; short-term, duration: 28 days, oral, gavage, Sprague-Dawley): 10 mg/kg-day | LOAEL [2, 9]: 500 mg/kg-day | NOAEL [2, 9]: 100 mg/kg-day

COc1ccccc1NC(=O)CC(C)=O [N-(2-Methoxyphenyl)-3-oxobutanamide]
LD50 ([2]; oral, gavage, Crj:CD): 1640 mg/kg

CCCCNS(=O)(=O)c1ccccc1 [N-Butylbenzenesulfonamide]
LC50 ([2]; Inhalation, Wistar): > 4070 mg/m3

O=C([O-])CCCCCCCC(=O)[O-].[Li+].[Li+] [Nonanedioic acid, dilithium salt]
NOAEL [2, 5]: 1000 mg/kg-day

O.O.O=c1nc([O-])n(Cl)c(=O)n1Cl.[Na+] [Sodium dichloroisocyanurate dihydrate]
LD50 ([2]; dermal, Sprague-Dawley): > 5000 mg/kg | LD50 ([2]; oral, gavage, Sprague-Dawley): 1820 mg/kg

NNC(=S)NN [Thiocarbazide]
LD50 ([2]; dermal, Wistar): > 500 mg/kg | LC50 ([2]; inhalation, Wistar): 50 mg/m3 and > 75.5 mg/m3

[Cl][Ti]([Cl])([Cl])[Cl] [Titanium tetrachloride]
LOAEL ([3]; chronic, duration: 104 weeks, inhalation, M/F, Crl:CD(SD), respiratory): 0.1 mg/m3 | LOAEL ([3]; short-term, duration: 4 weeks, inhalation, M, Crl:CD(SD), respiratory): 5 mg/m3

c1ccc(B(c2ccccc2)c2ccccc2)cc1 [Triphenylborane]
LD50 ([2]; oral, gavage, Sprague-Dawley): 196 mg/kg

ClCOCCl [bis(Chloromethyl) ether]
NOAEL ([3]; chronic, duration: 6 months, inhalation, M, Sprague-Dawley, respiratory): 0.47 mg/m3

c1ccc(-c2ccccc2-c2ccccc2)cc1 [o-Terphenyl]
LOAEL (% diet) ([2]; short-term, duration: 14 days, oral, diet, Wistar): 0.2 | NOAEL ([2]; subchronic, duration: 30 days, oral, diet, Sprague-Dawley): 100 mg/kg-day
